# Source: patent US20030201224A1, “Microbial consortium for the biodegradation of dithiocarbamates” (priority 2002, published 2003)
# Like-named read-outs stand apart in the source and are kept apart here.
# How the values were obtained:
# [1] = test system: consortium; experiment: Degradation of other N-alkyl dithiocarbamates by the consortium (1000 ml bioreactor); conditions: pH 7.2, 20-27° C.
# Method: A 1000 ml bioreactor containing the synthetic medium (described above) has been inoculated with the consortium density of approximately 1.1×10^7 ml. The initial pH value was 7.2 and the temperature varied between 20-27° C. Dithiocarbamate concentration was measured spectrophometrically by complexing with cupric acetate and measuring the absorbance at 430 nm.
# [2] = test system: microbial consortium; conditions: soil
# Method: One soil environment was inoculated with approximately 1.2×10^7 consortium members/g soil while the other remained uninoculated. Nitrogen and phosphorus was added to both systems. The initial soil pH was 6.8 and the temperature varied from 18° C. to 27° C. Water was added to maintain the dry weight at about 30%. Each soil system was mixed weekly to provide aeration.
# [3] = test system: consortium; conditions: within 72 hour; waste wash-water about 1100 ppm SDM and dilution at 500 ppm, pH 7.8; 20% inoculum of 72 h consortium
# Method: The sample, and a dilution of it at 500 ppm and pH 7.8, was inoculated with a 20% (VN) amount of a 72 h consortium. A control without inoculation was included.
smiles,measurement,setting,value
"CCN(CC)C(=S)S [Diethyl Dithiocarbamate, sodium diethyl dithiocarbamate]",% degradation (percent loss over the abiotic Control),[1]; time 0 h,3.28%
same,% degradation (percent loss over the abiotic Control),[1]; time 0.5 h,2.80%
same,% degradation (percent loss over the abiotic Control),[1]; time 1.5 h,8.78%
same,% degradation (percent loss over the abiotic Control),[1]; time 4 h,8.18%
same,% degradation (percent loss over the abiotic Control),[1]; time 5 h,13.29%
same,% degradation (percent loss over the abiotic Control),[1]; time 7 h,15.01%
same,% degradation (percent loss over the abiotic Control),[1]; time 27 h,18.00%
same,% degradation (percent loss over the abiotic Control),[1]; time 51 h,21.00%
same,% degradation (percent loss over the abiotic Control),[1]; time 73 h,23.00%
same,% degradation (percent loss over the abiotic Control),[1]; time 96 h,25.07%
"CCCN(CCC)C(=S)[S-].[Na+] [DiPropyl Dithiocarbamate, Sodium Dipropyl dithiocarbamates]",% degradation (percent loss over the abiotic Control),[1]; time 0 h,3.99%
same,% degradation (percent loss over the abiotic Control),[1]; time 0.5 h,3.87%
same,% degradation (percent loss over the abiotic Control),[1]; time 1.5 h,4.21%
same,% degradation (percent loss over the abiotic Control),[1]; time 4 h,3.56%
same,% degradation (percent loss over the abiotic Control),[1]; time 5 h,3.49%
same,% degradation (percent loss over the abiotic Control),[1]; time 7 h,4.37%
same,% degradation (percent loss over the abiotic Control),[1]; time 27 h,7.82%
same,% degradation (percent loss over the abiotic Control),[1]; time 51 h,9.43%
same,% degradation (percent loss over the abiotic Control),[1]; time 73 h,11.24%
same,% degradation (percent loss over the abiotic Control),[1]; time 96 h,14.56%
"CCCCN(CCCC)C(=S)[S-].[Na+] [Dibutyl Dithiocarbamate, Sodium Dibutyl dithiocarbamates]",% degradation (percent loss over the abiotic Control),[1]; time 0 h,4.44%
same,% degradation (percent loss over the abiotic Control),[1]; time 0.5 h,4.70%
same,% degradation (percent loss over the abiotic Control),[1]; time 1.5 h,4.10%
same,% degradation (percent loss over the abiotic Control),[1]; time 4 h,3.81%
same,% degradation (percent loss over the abiotic Control),[1]; time 5 h,3.98%
same,% degradation (percent loss over the abiotic Control),[1]; time 7 h,4.12%
same,% degradation (percent loss over the abiotic Control),[1]; time 27 h,6.11%
same,% degradation (percent loss over the abiotic Control),[1]; time 51 h,6.66%
same,% degradation (percent loss over the abiotic Control),[1]; time 73 h,7.93%
same,% degradation (percent loss over the abiotic Control),[1]; time 96 h,9.46%
"CN(C)C(=S)[S-].[Na+] [SDM, Sodium dimethyl dithiocarbamate]",% degradation (percent loss over the abiotic Control),[1]; time 0.5 h,8.1%
same,% degradation (percent loss over the abiotic Control),[1]; time 1.5 h,9.5%
same,% degradation (percent loss over the abiotic Control),[1]; time 4 h,12.3%
same,% degradation (percent loss over the abiotic Control),[1]; time 5 h,12.1%
same,% degradation (percent loss over the abiotic Control),[1]; time 7 h,27.1%
same,% degradation (percent loss over the abiotic Control),[1]; time 27 h,61.4%
same,% degradation (percent loss over the abiotic Control),[1]; time 51 h,77.8%
same,% degradation (percent loss over the abiotic Control),[1]; time 73 h,88.7%
same,% degradation (percent loss over the abiotic Control),[1]; time 96 h,97.5%
same,PERCENT degradation of SDM,"[2]; 100 mg SDM per kg soil, 1 d",1.6%
same,PERCENT degradation of SDM,"[2]; 100 mg SDM per kg soil, 3 d",18.3%
same,PERCENT degradation of SDM,"[2]; 100 mg SDM per kg soil, 7 d",50.2%
same,PERCENT degradation of SDM,"[2]; 500 mg SDM per kg soil, 1 d",6.2%
same,PERCENT degradation of SDM,"[2]; 500 mg SDM per kg soil, 3 d",22.6%
same,PERCENT degradation of SDM,"[2]; 500 mg SDM per kg soil, 7 d",63%
same,PERCENT degradation of SDM,"[2]; 1000 mg SDM per kg soil, 1 d",4.8%
same,PERCENT degradation of SDM,"[2]; 1000 mg SDM per kg soil, 3 d",16.3%
same,PERCENT degradation of SDM,"[2]; 1000 mg SDM per kg soil, 7 d",39.7%
same,PERCENT degradation of SDM,"[2]; 1000 mg SDM per kg soil, 10 d",48%
same,PERCENT degradation of SDM,"[2]; 1000 mg SDM per kg soil, 14 d",72%
same,PERCENT degradation of SDM,"[2]; 1000 mg SDM per kg soil, 20 d",76%
same,PERCENT degradation of SDM,"[2]; 2000 mg SDM per kg soil, 1 d",3.9%
same,PERCENT degradation of SDM,"[2]; 2000 mg SDM per kg soil, 3 d",12.4%
same,PERCENT degradation of SDM,"[2]; 2000 mg SDM per kg soil, 7 d",26.7%
same,PERCENT degradation of SDM,"[2]; 2000 mg SDM per kg soil, 10 d",32.1%
same,PERCENT degradation of SDM,"[2]; 2000 mg SDM per kg soil, 14 d",47.6%
same,PERCENT degradation of SDM,"[2]; 2000 mg SDM per kg soil, 20 d",54%
same,PERCENT degradation of SDM,"[2]; 2000 mg SDM per kg soil, 28 d",58%
same,PERCENT degradation of SDM,"[2]; 5000 mg SDM per kg soil, 1 d",5.2%
same,PERCENT degradation of SDM,"[2]; 5000 mg SDM per kg soil, 3 d",3.1%
same,PERCENT degradation of SDM,"[2]; 5000 mg SDM per kg soil, 7 d",2.3%
same,PERCENT degradation of SDM,"[2]; 5000 mg SDM per kg soil, 10 d",1.8%
same,PERCENT degradation of SDM,"[2]; 5000 mg SDM per kg soil, 14 d",3.6%
same,PERCENT degradation of SDM,"[2]; 5000 mg SDM per kg soil, 20 d",1.8%
same,PERCENT degradation of SDM,"[2]; 5000 mg SDM per kg soil, 28 d",3.2%
same,SDM degraded by the consortium,[3],~100%
